For this experiment, the target named is purified human, His-tagged PRC2 complex (Homo sapiens (Human), UniProt O75530). Briefly: Hot Spot HMT assay, inhibition of PRC2 enzymatic activity. The class given is biochemical. Conditions: 10 nM PRC2 complex, 1 μM 3H-SAM, core histone H3, 10-point dose-response. From the text: The assay uses purified human, His-tagged PRC2 complex, including N-terminal His-tagged EZH2 enzyme, N-terminal Flag-tagged embryonic ectoderm development protein (EED), N-terminal His-tagged suppressor of zeste 12 (SUZ12), N-terminal His-tagged AEBP2, and N-terminal His-tagged RbAp48. In this assay, the transfer of the tritiated methyl group from radiolabeled S-adenosyl methionine (SAM) to purified core histone protein by EZH2 is quantitated after filtration to determine the activity of the core PRC2 complex in the presence and absence of compound.
purified human, His-tagged PRC2 complex, sequence (O75530 whole entry): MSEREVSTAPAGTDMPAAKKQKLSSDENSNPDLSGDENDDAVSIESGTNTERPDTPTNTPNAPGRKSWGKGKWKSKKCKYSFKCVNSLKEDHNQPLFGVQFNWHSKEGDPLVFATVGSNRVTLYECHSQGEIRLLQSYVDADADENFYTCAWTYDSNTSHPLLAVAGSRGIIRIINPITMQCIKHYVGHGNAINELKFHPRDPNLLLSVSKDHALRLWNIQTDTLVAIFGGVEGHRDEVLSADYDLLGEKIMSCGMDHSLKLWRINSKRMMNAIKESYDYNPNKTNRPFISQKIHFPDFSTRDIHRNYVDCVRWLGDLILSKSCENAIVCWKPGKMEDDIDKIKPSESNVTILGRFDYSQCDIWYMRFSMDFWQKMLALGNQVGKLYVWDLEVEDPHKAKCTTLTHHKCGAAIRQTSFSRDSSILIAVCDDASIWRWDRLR
purified human, His-tagged PRC2 complex, sequence (Q15910 whole entry partner): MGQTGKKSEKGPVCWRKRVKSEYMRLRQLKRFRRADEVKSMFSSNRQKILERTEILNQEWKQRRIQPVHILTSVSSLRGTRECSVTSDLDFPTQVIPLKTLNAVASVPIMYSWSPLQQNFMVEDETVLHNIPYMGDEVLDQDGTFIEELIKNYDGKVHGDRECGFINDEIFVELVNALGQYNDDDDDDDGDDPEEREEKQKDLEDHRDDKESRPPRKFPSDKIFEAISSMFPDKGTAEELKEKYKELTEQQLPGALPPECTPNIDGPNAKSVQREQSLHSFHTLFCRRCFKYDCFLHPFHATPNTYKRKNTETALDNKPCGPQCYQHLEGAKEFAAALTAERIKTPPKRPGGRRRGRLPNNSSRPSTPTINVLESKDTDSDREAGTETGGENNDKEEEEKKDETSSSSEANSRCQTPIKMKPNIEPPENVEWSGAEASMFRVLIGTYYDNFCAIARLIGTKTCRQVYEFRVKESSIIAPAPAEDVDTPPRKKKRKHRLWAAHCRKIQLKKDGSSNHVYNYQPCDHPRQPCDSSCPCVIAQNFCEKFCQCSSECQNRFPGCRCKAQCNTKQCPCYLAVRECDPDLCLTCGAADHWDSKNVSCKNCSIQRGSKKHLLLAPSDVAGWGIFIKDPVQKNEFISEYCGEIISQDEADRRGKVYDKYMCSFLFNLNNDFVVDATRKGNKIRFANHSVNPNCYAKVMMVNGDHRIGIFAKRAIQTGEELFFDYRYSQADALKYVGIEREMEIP
purified human, His-tagged PRC2 complex, sequence (Q15022 whole entry partner): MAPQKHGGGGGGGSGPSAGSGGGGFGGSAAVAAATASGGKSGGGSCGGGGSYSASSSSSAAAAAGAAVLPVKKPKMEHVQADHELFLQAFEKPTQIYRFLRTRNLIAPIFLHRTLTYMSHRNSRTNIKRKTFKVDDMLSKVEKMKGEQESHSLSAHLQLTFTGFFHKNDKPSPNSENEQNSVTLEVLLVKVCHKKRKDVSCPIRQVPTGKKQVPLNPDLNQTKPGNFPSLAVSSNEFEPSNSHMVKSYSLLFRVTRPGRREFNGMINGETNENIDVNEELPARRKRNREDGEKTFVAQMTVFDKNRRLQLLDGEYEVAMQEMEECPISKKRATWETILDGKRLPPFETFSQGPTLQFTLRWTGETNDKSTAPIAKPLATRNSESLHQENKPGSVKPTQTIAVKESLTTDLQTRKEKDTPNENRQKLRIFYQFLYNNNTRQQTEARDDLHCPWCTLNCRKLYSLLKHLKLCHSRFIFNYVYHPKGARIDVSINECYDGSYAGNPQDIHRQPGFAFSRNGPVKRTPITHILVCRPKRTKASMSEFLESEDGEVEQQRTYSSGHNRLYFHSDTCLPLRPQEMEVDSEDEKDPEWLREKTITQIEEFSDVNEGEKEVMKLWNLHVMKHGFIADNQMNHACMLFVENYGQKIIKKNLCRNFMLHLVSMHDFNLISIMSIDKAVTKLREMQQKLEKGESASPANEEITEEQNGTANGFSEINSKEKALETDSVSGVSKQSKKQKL
purified human, His-tagged PRC2 complex, sequence (Q6ZN18 whole entry partner): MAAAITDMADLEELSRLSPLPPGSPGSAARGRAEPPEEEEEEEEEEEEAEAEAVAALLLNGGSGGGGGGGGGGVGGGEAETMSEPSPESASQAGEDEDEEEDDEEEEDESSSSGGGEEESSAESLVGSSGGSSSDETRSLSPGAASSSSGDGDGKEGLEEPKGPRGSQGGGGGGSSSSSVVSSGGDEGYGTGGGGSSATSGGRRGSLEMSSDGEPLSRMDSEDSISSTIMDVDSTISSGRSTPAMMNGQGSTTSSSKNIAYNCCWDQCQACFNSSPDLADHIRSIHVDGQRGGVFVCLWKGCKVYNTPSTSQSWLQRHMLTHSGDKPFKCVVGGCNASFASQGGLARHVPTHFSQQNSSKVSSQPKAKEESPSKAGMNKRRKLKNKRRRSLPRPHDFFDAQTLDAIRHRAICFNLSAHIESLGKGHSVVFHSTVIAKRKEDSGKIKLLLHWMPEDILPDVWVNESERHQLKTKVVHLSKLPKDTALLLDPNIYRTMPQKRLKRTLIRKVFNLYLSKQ
purified human, His-tagged PRC2 complex, sequence (Q09028 whole entry partner): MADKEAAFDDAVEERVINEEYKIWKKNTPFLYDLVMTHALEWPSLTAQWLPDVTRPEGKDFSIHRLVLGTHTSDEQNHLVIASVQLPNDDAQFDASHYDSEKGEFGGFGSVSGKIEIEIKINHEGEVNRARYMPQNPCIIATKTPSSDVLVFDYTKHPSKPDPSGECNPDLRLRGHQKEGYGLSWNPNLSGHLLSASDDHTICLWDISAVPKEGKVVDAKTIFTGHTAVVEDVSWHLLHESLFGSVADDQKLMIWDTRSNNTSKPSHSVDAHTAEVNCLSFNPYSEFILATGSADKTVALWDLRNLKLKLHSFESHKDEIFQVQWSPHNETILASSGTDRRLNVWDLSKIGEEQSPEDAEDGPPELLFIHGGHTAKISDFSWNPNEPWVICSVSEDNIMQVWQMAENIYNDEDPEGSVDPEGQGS
The initial starting concentration for the serial dilutions of each compound was 1.0 μM. […] SAH (S-(5-adenosyl)-L-homocysteine) was used as a positive control for assay validation.
An aliquot of each serial dilution of test compound was added to deep 384 well plate using Acoustic Technology instrument (Echo 550, LabCyte) containing reaction buffer (50 mM Tris-HCl (pH 8.)), 0.01% Brij35, 1 mM EDTA, 1 mM DTT, 1 mM PMSF and 1% DMSO), 10 nM purified PRC2 complex and 0.05 mg/ml core histone H3 in a 5 μl volume. The reaction was mixed gently and then pre-incubated for 20 min at 30° C. The enzymatic reaction was initiated by adding 1 μM S-Adenosyl-L-[methyl-^3H]methionine and incubated for 1 hr at 30° C. After 1 hr, the reaction product was detected using a filter binding method and the amount of tritiated H3 core histone was quantitated using a scintillation counter. […] Key: A=<100 nM; B=>100 nM-<500 nM; and C=>500 nM.
`CCOP(=O)(OCC)c1ccc(-c2cnc(NCc3c(F)ccc4c3CCO4)n3cc(C#N)nc23)cc1` [Example 164, diethyl (4-(2-cyano-5-(((5-fluoro-2,3-dihydrobenzofuran-4-yl)methyl)amino)imidazo[1,2-c]pyrimidin-8-yl)phenyl)phosphonate]: the concentration for half-maximal inhibition (IC50) (in general, the concentration needed to halve the response being measured) was less than 0.1 µM.
In turn, `Cc1nn(C[C@@H](C)O)c(C)c1-c1cnc(NCc2c(F)ccc3c2CCO3)n2cc(C#N)nc12` [Example 66, (R)-5-(((5-fluoro-2,3-dihydrobenzofuran-4-yl)methyl)amino)-8-(1-(2-hydroxypropyl)-3,5-dimethyl-1H-pyrazol-4-yl)imidazo[1,2-c]pyrimidine-2-carbonitrile] registered a concentration for half-maximal inhibition (IC50) of 0.1 to 0.5 µM.
For `N#Cc1cn2c(NCc3c(F)ccc4c3CCO4)ncc(-c3cnn(C4CCOC4)c3)c2n1` (stereo not drawn) [Example 107, 5-(((5-fluoro-2,3-dihydrobenzofuran-4-yl)methyl)amino)-8-(1-(tetrahydrofuran-3-yl)-1H-pyrazol-4-yl)imidazo[1,2-c]pyrimidine-2-carbonitrile], the half-inhibitory concentration (IC50) is 0.1 to 0.5 µM.
To `Cc1cc(CN(C)C)ccc1-c1cnc(NCc2c(F)ccc3c2C(O)CO3)n2cc(C#N)nc12` (stereo not drawn) [Example 207, 8-(4-((dimethylamino)methyl)-2-methylphenyl)-5-(((5-fluoro-3-hydroxy-2,3-dihydrobenzofuran-4-yl)methyl)amino)imidazo[1,2-c]pyrimidine-2-carbonitrile] belongs less than 0.1 µM; to `Cc1cc(-c2cnc(NCc3c(F)ccc4c3C(O)CO4)n3cc(C#N)nc23)n(C)n1` (stereo not drawn) [Example 155, 8-(1,3-dimethyl-1H-pyrazol-5-yl)-5-(((5-fluoro-3-hydroxy-2,3-dihydrobenzofuran-4-yl)methyl)amino)imidazo[1,2-c]pyrimidine-2-carbonitrile], less than 0.1 µM.
`CN(C)C(=O)c1ccc(-c2cnc(NCc3c(F)ccc4c3CCO4)n3cc(C#N)nc23)cc1F` [Example 36, 4-(2-cyano-5-(((5-fluoro-2,3-dihydrobenzofuran-4-yl)methyl)amino)imidazo[1,2-c]pyrimidin-8-yl)-2-fluoro-N,N-dimethylbenzamide]: the IC50 was less than 0.1 µM.
To `COc1ncc(-c2cnc(NCc3c(F)ccc4c3CCO4)n3cc(C#N)nc23)c(C)n1` [Example 88, 5-(((5-fluoro-2,3-dihydrobenzofuran-4-yl)methyl)amino)-8-(2-methoxy-4-methylpyrimidin-5-yl)imidazo[1,2-c]pyrimidine-2-carbonitrile] belongs less than 0.1 µM; to `Cc1nn(C(C)C)cc1-c1cnc(NCc2c(F)ccc3c2CCO3)n2cc(C#N)nc12` [Example 23, 5-(((5-fluoro-2,3-dihydrobenzofuran-4-yl)methyl)amino)-8-(1-isopropyl-3-methyl-1H-pyrazol-4-yl)imidazo[1,2-c]pyrimidine-2-carbonitrile], 0.1 to 0.5 µM.
To `Cn1cc(-c2cnc(NCc3c(F)ccc4c3CCO4)n3cc(C#N)nc23)c(C#N)n1` [Example 224, 8-(3-cyano-1-methyl-1H-pyrazol-4-yl)-5-(((5-fluoro-2,3-dihydrobenzofuran-4-yl)methyl)amino)imidazo[1,2-c]pyrimidine-2-carbonitrile] belongs 0.1 to 0.5 µM; to `Cc1cc(-c2cnc(NCc3c(F)ccc4c3CCCO4)n3cc(C#N)nc23)n(C)n1` [Example 122, 8-(1,3-dimethyl-1H-pyrazol-5-yl)-5-(((6-fluorochroman-5-yl)methyl)amino)imidazo[1,2-c]pyrimidine-2-carbonitrile], greater than 0.5 µM.
Turning to `Cc1nn(C(C)C)cc1-c1cnc(NCc2c(F)ccc3c2CCO3)n2cc(C(N)=O)nc12` [Example 13, 5-(((5-fluoro-2,3-dihydrobenzofuran-4-yl)methyl)amino)-8-(1-isopropyl-3-methyl-1H-pyrazol-4-yl)imidazo[1,2-c]pyrimidine-2-carboxamide], the IC50 was less than 0.1 µM.
To `Cc1ccncc1-c1cnc(NCc2c(F)ccc3c2CCO3)n2cc(C#N)nc12` [Example 98, 5-(((5-fluoro-2,3-dihydrobenzofuran-4-yl)methyl)amino)-8-(4-methylpyridin-3-yl)imidazo[1,2-c]pyrimidine-2-carbonitrile] belongs less than 0.1 µM; to `N#Cc1cn2c(NCc3c(F)ccc4c3CCO4)ncc(-c3cnccc3Cl)c2n1` [Example 109, 8-(4-chloropyridin-3-yl)-5-(((5-fluoro-2,3-dihydrobenzofuran-4-yl)methyl)amino)imidazo[1,2-c]pyrimidine-2-carbonitrile], less than 0.1 µM; to `CN(C)Cc1ccc(-c2cnc(NCc3c(F)ccc4c3CCO4)n3cc(C#N)nc23)cc1F` [Example 63, 8-(4-((dimethylamino)methyl)-3-fluorophenyl)-5-(((5-fluoro-2,3-dihydrobenzofuran-4-yl)methyl)amino)imidazo[1,2-c]pyrimidine-2-carbonitrile], less than 0.1 µM.
Under `N#Cc1cn2c(NCc3c(F)ccc4c3CCO4)ncc(-c3cnn(CC(F)(F)F)c3)c2n1` [Example 108, 5-(((5-fluoro-2,3-dihydrobenzofuran-4-yl)methyl)amino)-8-(1-(2,2,2-trifluoroethyl)-1H-pyrazol-4-yl)imidazo[1,2-c]pyrimidine-2-carbonitrile] stands less than 0.1 µM; under `N#Cc1cn2c(NCc3c(F)ccc4c3CCO4)ncc(-c3cncc(C(F)(F)F)c3)c2n1` [Example 132, 5-(((5-fluoro-2,3-dihydrobenzofuran-4-yl)methyl)amino)-8-(5-(trifluoromethyl)pyridin-3-yl)imidazo[1,2-c]pyrimidine-2-carbonitrile], greater than 0.5 µM.
`Cc1cncc(-c2cnc(NCc3c(F)ccc4c3CCO4)n3cc(C#N)nc23)c1` [Example 96, 5-(((5-fluoro-2,3-dihydrobenzofuran-4-yl)methyl)amino)-8-(5-methylpyridin-3-yl)imidazo[1,2-c]pyrimidine-2-carbonitrile] registered a concentration for half-maximal inhibition (IC50) of less than 0.1 µM.
Under `N#Cc1cn2c(NCc3c(F)ccc4c3CCO4)ncc(-c3ccnn3CCO)c2n1` [Example 231, 5-(((5-fluoro-2,3-dihydrobenzofuran-4-yl)methyl)amino)-8-(1-(2-hydroxyethyl)-1H-pyrazol-5-yl)imidazo[1,2-c]pyrimidine-2-carbonitrile] stands 0.1 to 0.5 µM; under `N#Cc1cn2c(NCc3c(F)ccc4c3CCO4)ncc(-c3ccn(CC4CCCO4)n3)c2n1` (stereo not drawn) [Example 153, 5-(((5-fluoro-2,3-dihydrobenzofuran-4-yl)methyl)amino)-8-(1-((tetrahydrofuran-2-yl)methyl)-1H-pyrazol-3-yl)imidazo[1,2-c]pyrimidine-2-carbonitrile], 0.1 to 0.5 µM.
In turn, `CN(C)C(=O)c1ccc(-c2cnc(NCc3c(F)ccc4c3CCO4)n3cc(C#N)nc23)cc1` [Example 180, 4-(2-cyano-5-(((5-fluoro-2,3-dihydrobenzofuran-4-yl)methyl)amino)imidazo[1,2-c]pyrimidin-8-yl)-N,N-dimethylbenzamide] yielded an IC50 of less than 0.1 µM.
Under `N#Cc1cn2c(NCc3c(F)ccc4c3CCO4)ncc(-c3ccc(CN4CCOCC4)cc3)c2n1` [Example 75, 5-(((5-fluoro-2,3-dihydrobenzofuran-4-yl)methyl)amino)-8-(4-(morpholinomethyl)phenyl)imidazo[1,2-c]pyrimidine-2-carbonitrile] stands less than 0.1 µM.
